From ChEMBL document CHEMBL1201862, “PubChem BioAssay data set” (2004)
Calls of active or inactive are those of the source. Rule as the data show it, for most assays here: actives have a measured EC50 and inactives only a lower limit.

Experiments:
[1] = biological target: T1, RNA-binding protein pos-1 (Caenorhabditis elegans, UniProt G5EF15); assay: inhibitors of POS-1/mex-3 RNA binding, dose response, biochemical, fluorescence polarization (AID 1964);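 also: purified POS-1 fused to maltose binding protein made in E. coli; potency of compounds blocking POS-1 binding to fluorescent RNA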
T1 sequence (G5EF15 whole entry): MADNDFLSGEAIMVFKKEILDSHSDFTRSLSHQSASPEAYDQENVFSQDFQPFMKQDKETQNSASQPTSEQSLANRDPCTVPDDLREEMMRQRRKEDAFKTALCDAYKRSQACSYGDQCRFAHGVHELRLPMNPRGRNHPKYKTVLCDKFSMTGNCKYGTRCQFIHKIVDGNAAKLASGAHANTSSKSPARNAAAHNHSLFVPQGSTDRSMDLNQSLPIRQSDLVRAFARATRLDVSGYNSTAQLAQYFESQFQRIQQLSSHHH

[2] = biological target: T2, Zinc finger protein mex-5 (Caenorhabditis elegans, UniProt Q9XUB2); assay: MEX-5/TCR-2 RNA interaction inhibitors, dose response, biochemical, C. elegans, fluorescence polarization (AID 1960)
T2 sequence (Q9XUB2 whole entry): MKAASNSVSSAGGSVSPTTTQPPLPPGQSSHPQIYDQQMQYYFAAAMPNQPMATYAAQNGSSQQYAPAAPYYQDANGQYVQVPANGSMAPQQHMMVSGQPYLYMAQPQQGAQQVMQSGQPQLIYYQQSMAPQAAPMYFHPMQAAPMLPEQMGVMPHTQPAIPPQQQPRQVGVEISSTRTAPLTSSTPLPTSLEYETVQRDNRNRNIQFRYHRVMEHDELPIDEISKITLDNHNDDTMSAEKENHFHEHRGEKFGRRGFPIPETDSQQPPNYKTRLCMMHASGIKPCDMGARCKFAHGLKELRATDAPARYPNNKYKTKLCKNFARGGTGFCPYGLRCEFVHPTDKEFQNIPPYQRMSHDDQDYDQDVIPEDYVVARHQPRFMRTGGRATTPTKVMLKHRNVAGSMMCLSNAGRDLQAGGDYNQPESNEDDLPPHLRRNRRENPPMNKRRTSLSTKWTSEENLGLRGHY

[3] = biological target: T3, Leucine aminopeptidase (Plasmodium falciparum 3D7, UniProt Q8IL11); assay: P. falciparum M17LAP inhibitors, primary screen, biochemical, fluorogenic H-Leu-NHMec substrate, 1536-well (AID 1619); assay type: functional
T3 sequence (Q8IL11 whole entry): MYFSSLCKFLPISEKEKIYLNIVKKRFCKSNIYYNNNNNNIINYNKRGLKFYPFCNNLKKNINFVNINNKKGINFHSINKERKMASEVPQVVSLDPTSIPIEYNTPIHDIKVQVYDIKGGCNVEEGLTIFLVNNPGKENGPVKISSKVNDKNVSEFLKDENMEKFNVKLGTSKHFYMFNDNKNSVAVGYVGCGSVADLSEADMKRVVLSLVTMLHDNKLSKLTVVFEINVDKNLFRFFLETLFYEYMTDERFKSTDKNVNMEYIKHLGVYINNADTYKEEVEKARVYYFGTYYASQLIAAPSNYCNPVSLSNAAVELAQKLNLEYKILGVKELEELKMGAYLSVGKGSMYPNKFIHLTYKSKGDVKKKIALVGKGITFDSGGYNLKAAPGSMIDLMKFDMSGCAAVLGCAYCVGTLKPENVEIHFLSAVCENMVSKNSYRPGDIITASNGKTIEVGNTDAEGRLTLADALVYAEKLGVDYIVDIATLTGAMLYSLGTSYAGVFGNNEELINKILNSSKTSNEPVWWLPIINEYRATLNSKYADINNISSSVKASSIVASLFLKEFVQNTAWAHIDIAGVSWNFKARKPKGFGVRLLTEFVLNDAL

[4] = HEp-2 cell cytotoxicity, dose response, cytotoxicity control for RSV inhibitor project, HTS (AID 2410); assay type: functional; details: human respiratory syncytial virus
[5] = biological target: T4, Rac GTPase-activating protein 1 (Homo sapiens, UniProt Q9H0H5); assay: MgcRacGAP GTPase-activating activity inhibitors, confirmation, biochemical, ADP Hunter fluorescence, primary and confirmatory (AID 624330); assay type: functional
T4 sequence (Q9H0H5 whole entry): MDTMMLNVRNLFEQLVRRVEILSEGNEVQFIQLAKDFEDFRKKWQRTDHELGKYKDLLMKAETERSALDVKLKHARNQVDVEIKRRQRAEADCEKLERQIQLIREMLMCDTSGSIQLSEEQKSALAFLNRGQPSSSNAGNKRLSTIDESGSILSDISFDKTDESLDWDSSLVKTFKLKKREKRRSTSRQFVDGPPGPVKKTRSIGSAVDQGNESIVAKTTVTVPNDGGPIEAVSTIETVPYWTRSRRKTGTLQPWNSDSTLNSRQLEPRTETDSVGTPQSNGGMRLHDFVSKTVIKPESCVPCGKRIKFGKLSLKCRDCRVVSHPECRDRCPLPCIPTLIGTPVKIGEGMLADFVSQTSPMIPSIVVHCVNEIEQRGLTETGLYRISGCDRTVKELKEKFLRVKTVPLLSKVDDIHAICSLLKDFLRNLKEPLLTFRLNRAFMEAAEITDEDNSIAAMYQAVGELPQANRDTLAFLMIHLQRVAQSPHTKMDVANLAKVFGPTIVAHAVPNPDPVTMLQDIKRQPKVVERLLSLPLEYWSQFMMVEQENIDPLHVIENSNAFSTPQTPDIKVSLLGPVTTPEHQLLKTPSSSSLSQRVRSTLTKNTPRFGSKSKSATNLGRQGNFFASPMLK

[6] = biological target: T5, Calpain-2 catalytic subunit (Sus scrofa, UniProt P43367); assay: pig calpain II inhibitor potency, dose response, biochemical, fluorogenic peptide substrate (AID 1420); assay type: functional
T5 sequence (P43367 whole entry): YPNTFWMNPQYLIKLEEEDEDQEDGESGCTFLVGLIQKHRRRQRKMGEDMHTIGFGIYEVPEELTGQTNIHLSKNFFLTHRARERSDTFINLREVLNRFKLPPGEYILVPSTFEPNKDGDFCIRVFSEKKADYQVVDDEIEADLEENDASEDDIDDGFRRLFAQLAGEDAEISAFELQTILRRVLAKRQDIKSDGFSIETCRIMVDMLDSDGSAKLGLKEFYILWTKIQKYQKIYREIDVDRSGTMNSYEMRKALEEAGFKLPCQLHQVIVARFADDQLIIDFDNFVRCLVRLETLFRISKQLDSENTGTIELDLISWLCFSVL

[7] = biological target: T6, Heat shock factor protein 1 (Mus musculus, UniProt P38532); assay: HSF1 potentiators in luciferase reporter cells, confirmation, cell-based, NIH3T3, luminescence, dose retest (AID 435004); assay type: functional;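 also: stress induced by proteasome inhibitor MG132 added 30 min after compound; luciferase reporter driven by HSF1 response element in NIH3T3 cells; actives raise luminescence as potentiators of the MG132 stress response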
T6 sequence (P38532 whole entry): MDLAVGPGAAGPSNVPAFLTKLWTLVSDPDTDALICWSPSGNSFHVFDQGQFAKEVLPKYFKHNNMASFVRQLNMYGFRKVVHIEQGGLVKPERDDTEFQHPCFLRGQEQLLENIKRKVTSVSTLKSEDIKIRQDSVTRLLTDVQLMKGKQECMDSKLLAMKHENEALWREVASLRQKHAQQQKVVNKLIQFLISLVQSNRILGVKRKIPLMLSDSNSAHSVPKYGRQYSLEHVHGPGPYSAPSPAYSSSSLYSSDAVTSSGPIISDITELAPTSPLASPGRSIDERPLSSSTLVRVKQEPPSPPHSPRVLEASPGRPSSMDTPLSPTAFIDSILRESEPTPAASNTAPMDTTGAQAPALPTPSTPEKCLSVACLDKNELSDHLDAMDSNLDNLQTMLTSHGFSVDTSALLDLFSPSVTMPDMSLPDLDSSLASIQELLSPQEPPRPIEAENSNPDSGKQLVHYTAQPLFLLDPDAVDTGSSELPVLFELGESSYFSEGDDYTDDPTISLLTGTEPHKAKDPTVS

[8] = biological target: T7, Replicative DNA helicase DnaB (Mycobacterium tuberculosis, UniProt P9WMR3); assay: DnaB intein splicing inhibitors, dose response, biochemical, cell-free fluorescence (AID 449749); assay type: functional
T7 sequence (P9WMR3 whole entry): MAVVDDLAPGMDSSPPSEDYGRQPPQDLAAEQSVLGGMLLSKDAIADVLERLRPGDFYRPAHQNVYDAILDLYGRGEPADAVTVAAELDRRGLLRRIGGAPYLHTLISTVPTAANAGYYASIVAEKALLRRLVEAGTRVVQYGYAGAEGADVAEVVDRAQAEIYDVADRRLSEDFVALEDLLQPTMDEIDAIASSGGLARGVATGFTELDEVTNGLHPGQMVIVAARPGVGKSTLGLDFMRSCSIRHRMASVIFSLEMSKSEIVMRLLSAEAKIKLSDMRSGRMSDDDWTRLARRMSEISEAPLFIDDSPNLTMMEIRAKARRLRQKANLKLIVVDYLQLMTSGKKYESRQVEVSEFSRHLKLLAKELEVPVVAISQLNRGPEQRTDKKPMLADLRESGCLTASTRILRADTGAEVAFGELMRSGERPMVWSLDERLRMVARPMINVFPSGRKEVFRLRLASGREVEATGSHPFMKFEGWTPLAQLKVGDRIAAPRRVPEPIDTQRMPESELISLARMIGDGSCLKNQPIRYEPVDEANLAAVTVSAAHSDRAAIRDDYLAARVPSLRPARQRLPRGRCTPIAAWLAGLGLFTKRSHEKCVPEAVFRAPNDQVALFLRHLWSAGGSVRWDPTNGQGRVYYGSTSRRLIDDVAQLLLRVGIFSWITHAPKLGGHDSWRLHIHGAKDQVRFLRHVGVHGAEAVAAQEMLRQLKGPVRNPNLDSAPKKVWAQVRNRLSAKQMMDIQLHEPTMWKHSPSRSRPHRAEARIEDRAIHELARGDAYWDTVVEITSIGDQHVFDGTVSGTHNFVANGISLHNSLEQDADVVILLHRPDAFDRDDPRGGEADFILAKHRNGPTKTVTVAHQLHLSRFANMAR

[9] = biological target: T8, Protein RecA (Mycobacterium tuberculosis, UniProt P9WHJ3); assay: Fluorescence Cell-Free Homogeneous Dose Retest to Identify Inhibitors of RecA-Intein Splicing Activity. [Related pubchem assays (depositor defined):AID2097, AID2223, AID489010, AID492950]; assay type: functional
T8 sequence (P9WHJ3 whole entry): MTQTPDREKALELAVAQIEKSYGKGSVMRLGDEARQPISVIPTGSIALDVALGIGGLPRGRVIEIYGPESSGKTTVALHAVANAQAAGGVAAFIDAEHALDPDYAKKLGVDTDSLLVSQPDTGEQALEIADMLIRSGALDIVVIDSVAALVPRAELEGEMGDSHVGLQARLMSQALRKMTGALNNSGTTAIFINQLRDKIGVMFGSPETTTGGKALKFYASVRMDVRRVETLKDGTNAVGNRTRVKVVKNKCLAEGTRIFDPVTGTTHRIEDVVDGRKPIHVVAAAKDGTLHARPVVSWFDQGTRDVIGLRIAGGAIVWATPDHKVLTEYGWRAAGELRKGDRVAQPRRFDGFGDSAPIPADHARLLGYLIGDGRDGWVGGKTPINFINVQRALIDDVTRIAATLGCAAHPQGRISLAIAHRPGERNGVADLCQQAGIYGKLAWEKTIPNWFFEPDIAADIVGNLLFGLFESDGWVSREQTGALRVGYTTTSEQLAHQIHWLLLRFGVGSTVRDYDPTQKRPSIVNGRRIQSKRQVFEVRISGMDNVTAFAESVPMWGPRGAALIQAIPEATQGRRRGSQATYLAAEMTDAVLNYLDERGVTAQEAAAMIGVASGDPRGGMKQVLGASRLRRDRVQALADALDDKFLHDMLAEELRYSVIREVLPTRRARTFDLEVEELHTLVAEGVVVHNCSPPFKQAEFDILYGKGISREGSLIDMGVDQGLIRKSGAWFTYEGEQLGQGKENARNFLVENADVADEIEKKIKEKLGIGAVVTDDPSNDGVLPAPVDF

[10] = cytotoxicity toward NIH3T3 fibroblasts, dose response, counter-screen, cell-based, ATP luminescence, mouse fibroblasts (AID 2010); assay type: functional;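 also: cells exposed to compound for about 90 hours before reading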
[11] = inhibitors of intracellular T. cruzi replication, confirmation, NIH3T3 host cells, beta-gal luminescence (AID 2044); assay type: functional, cell-based;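 also: intracellular parasites grown in NIH/3T3 mouse fibroblasts as host cells; luminescent beta-galactosidase reporter signal from transgenic T. cruzi replicating inside host cells; inhibitors lower the luminescence signal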
[12] = Luminescence Cell-Based Dose Confirmation HTS to Identify Inhibitors of Platelet Dense Granule Release. [Related pubchem assays: 1663 (Primary HTS), 1678 (Summary of Project)]; assay type: functional
[13] = biological target: Luciferin 4-monooxygenase (Photinus pyralis, UniProt P08659); assay: firefly luciferase enzyme inhibitors, dose response, biochemical, luminescence (AID 1891)
Chain of Luciferin 4-monooxygenase (P08659 whole entry): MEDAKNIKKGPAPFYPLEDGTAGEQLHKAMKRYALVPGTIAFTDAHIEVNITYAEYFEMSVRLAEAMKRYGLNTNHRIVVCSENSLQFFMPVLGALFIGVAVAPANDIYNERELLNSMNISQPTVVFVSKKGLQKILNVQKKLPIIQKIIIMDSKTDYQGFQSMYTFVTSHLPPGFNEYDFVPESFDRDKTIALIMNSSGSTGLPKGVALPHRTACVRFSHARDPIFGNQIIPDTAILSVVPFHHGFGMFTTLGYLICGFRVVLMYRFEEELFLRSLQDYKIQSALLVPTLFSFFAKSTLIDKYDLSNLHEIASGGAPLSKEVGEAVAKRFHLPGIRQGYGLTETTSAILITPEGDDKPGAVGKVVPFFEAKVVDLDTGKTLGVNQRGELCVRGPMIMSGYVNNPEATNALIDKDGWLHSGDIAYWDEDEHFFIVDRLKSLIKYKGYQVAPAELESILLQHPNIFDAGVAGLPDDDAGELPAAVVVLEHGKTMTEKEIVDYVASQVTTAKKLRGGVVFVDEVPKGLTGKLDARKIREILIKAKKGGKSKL

| SMILES | EC50 [1] | EC50 [2] | CC50 [4] | also measured |
| --- | --- | --- | --- | --- |
| Cc1ccc(C2c3sc(=O)[nH]c3SC3C(=O)NC(=O)C32)cc1 (centres undefined) | > 300 µM (inconclusive) | 6.53 µM (inconclusive) |  |  |
| Cc1ccccc1NS(=O)(=O)c1cc(C(=O)N2CCCC2)ccc1C | > 300 µM (not active) | > 300 µM (not active) |  |  |
| O=C(CSc1nnc(-c2ccc(NS(=O)(=O)c3ccccc3)cc2)o1)NCC1CCCO1 (centres undefined) |  |  |  | IC50 [3]: 6.04 µM (active) |
| COc1cc(/C=N/NP(=S)(c2ccccc2)c2ccccc2)ccc1O |  |  | 30.3 µM (active) | IC50 [5]: 109 µM (active); IC50 [6]: 14.2 µM (not active) |
| CN1C(=O)C(=Cc2cn(CC(=O)N3CCCCC3)c3ccccc23)C(=O)N(C)C1=O | > 300 µM (not active) | > 300 µM (not active) |  |  |
| COc1ccc2c(c1OC)C(=O)OC2Nc1nc(-c2cc3ccccc3oc2=O)cs1 (centres undefined) |  |  |  | IC50 [3]: 5.03 µM (active) |
| O=C(O)Cn1cc(/C=C2\C(=O)NC(=O)N(c3ccc(F)cc3)C2=O)c2ccccc21 | 9.27 µM (active) | 8.21 µM (active) |  |  |
| O=C(CCCl)Nc1nc2c(s1)CCc1ccccc1-2 |  |  | 4.52 µM (active) | EC50 [7]: 22.2 µM (active) |
| Nc1n[nH]c(N)c1N=Nc1ccc(Cl)cc1 |  |  |  | IC50 [3]: 12.5 µM (active) |
| C=CCN1C(=O)NC(=O)/C(=C/c2ccc(OCC(=O)Nc3ccc(C)cc3)cc2)C1=O | > 300 µM (not active) | > 300 µM (not active) |  |  |
| CCOC(=O)C1Nc2c(F)cc(C)cc2C2c3ccccc3CC12 (centres undefined) |  |  | 31.9 µM (active) | AC50 [8]: 11.4 µM (active); EC50 [9]: 36 µM (active) |
| CCn1c(SCC(=O)Nc2cc(C)on2)nnc1-c1ccc(OC)cc1 | > 300 µM (not active) | > 300 µM (not active) |  |  |
| CCOc1ccc2nc(NC(=O)C3CCCN(S(=O)(=O)c4cccs4)C3)sc2c1 (centres undefined) |  |  | 24.3 µM (active) | EC50 [10]: > 60 µM (not active); EC50 [11]: 2.51 µM (active) |
| COC(=O)/C=C1\SC(N/N=C/c2ccc(Cl)cc2)=NC1=O |  |  | 23.5 µM (active) | EC50 [12]: > 112 µM (not active); EC50 [13]: 41.5 µM (active) |
